Source: patent publication US5183828A, “Polyhydroxybenzoic acid derivatives” (priority 1990, dated 1993)
Values joined by “and” are separate entries in the source; they are usually repeats but may differ in a detail not shown here. Identical values can stand only once. Counter-ions that a name gives are not always drawn.

How the values were obtained:
SRS-A biosynthesis = test: effect of drug on SRS-A biosynthesis; type: in vivo; conditions: 10 mg/kg, i.v.; ovalbumin-sensitized guinea-pigs
Procedure: Compounds according to this invention were also able to affect SRS-A biosynthesis, also in vivo. In this determination, male Hartley guinea-pigs (200-300 g) were sensitized with a single intraperitoneal injection of ovalbumin (10 mg) in 1 ml of 0.9% w/v NaCl solution (saline). The animals were used for study on days 28-45, following the ovalbumin injection. Guinea-pigs this sensitized were anaesthetized with an intraperitoneal injection of urethane (2 g/kg), and the carotid artery and jugular vein cannulated for measurement of arterial blood pressure and to facilitate intravenous drug administration. Animals were ventilated with a Harvard small animal respirator set at a stroke volume of 2.5 cc and a rate of 40 breaths per min. Ventilatory pressure (cmH2 O) was measured with a Statham pressure transducer from a side arm off the tracheal cannula. […]
Plasma SRS-A was determined as follows: Arterial blood was drawn from the carotid artery of the guinea-pigs into sodium citrate (0.38%) containing indomethacin (10^-4 M). […]
SRS-A was bioassayed on the guinea-pig ileum incubated in Tyrode solution containing 10^-6 M atropine sulphate and 10^-6 M pyrilamine maleate and aerated with 95% O2 and 5% CO2. Changes in tension were measured isotonically with an Adaps rotary motion transducer and recorded on a Linear recorder. […]

Δ^5-lipoxygenase = biological target: T1, Δ^5-lipoxygenase (Rattus norvegicus, UniProt P12527); test: ability to inhibit Δ^5-lipoxygenase; type: biochemical; conditions: RBL-1 cell supernatant
T1 construct: supernatant fraction of lysed rat basophilic leukemia (RBL-1) cells; endogenous in cells; host or cells: RBL-1 cells, 49,000 g supernatant of homogenate
T1 sequence (P12527 1-673): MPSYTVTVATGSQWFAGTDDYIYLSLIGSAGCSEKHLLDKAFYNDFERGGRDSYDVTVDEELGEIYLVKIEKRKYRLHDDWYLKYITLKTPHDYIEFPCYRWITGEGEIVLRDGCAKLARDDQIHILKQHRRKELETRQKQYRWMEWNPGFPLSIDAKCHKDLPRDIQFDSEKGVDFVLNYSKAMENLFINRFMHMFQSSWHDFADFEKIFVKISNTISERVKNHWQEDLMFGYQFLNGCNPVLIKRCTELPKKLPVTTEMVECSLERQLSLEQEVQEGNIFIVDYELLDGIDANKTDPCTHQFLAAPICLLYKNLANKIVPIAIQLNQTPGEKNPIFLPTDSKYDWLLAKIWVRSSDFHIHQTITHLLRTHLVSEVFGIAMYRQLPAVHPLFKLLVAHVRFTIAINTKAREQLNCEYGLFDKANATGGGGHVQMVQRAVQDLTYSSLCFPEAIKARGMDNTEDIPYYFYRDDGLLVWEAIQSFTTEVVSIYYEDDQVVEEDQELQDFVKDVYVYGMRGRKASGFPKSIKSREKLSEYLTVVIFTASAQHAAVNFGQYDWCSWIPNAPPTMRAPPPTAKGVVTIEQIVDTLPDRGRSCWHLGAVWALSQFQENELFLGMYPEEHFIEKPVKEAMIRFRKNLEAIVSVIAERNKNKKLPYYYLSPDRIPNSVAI
Procedure: This enzyme is believed to initiate the synthesis of slow reacting substance of […]), an important mediator in the pathogenesis of asthma. Thus, a drug capable of inhibiting this enzyme would also help to prevent asthmatic attacks. In this determination, Δ^5 -lipoxygenase was derived from the supernatant fraction of lysed rat basophilic leukemia (RBL-1) cells. […] The Δ^5 -lipoxygenase was derived from RBL-1 cells which were lysed by homogenization in ice-cold buffer (50 mM Tris-HCl buffer, pH 7.2, containing 1 mM EDTA and 14 uM indomethacin). The homogenate was centrifuged at 4 ° C. at 49,000 g for 20 min and the resulting supernatant fraction was used as the source of Δ^5 -lipoxygenase. The enzyme was assayed at 37° using 6.7 uM (0.39 uCi/ml) [1-14C]arachidonic acid as the substrate in 50 mM Tris-HCl buffer, pH 7.2, containing 1 mM gluthatione, 3 mM CaCl2, 14 uM indomethacin, and 0.25 to 0.50 mM EDTA. […] The effect of compounds on Δ^5 -lipoxygenase activity was determined by preincubating the enzyme for 10 min at 30° in the presence or absence of various concentrations of the drug prior to addition of substrate.

B16 Melanoma = test: activity vs B16 melanoma (T/C % survival), Table 4; type: in vivo, mice; conditions: nine days, >120 significant
Procedure: The drugs were also used to treat melanotic melanoma B16. The protocol for testing against this tumor is as follows:
0.5 ml. of a tumor homogenate prepared by homogenizing 1 g. of tumor with 10 ml. of cold balanced solution is implanted ip in groups of 10 B6 C3 F1 mice. The drug is administered daily for a total of nine days starting one day after tumor inoculation. The results are expressed as mean survival time of treated group versus control group (T/C) as a percent.

[1] = free radical scavenging ability (destruction of diphenylpicrylhydrazyl), Table 7; conditions: 100 μM diphenylpicrylhydrazyl in acetone; test compound 25 μM, 2.5 μM (footnote)
Text: It is believed that the antineoplastic activity of the compounds of this invention is due in parts to their ability to scavenge free-radicals. Additionally, the compounds of this invention are cancer protective agents and this utility also may be a manifestation of their free-radical scavenging capability. Free-radical scavenging agents may also be useful in detoxifying mammals in whom an excess of free radicals is a cause and/or result of the toxicity. Other possible uses of free radical scavengers are to inhibit protaglandin transformation, leucotriene interconversion and lipogenesis, to act as inflammatory modulators and as food additive or preservatives to prevent lipid oxidation. The free radical scavenging ability of the compounds of the invention was determined by measuring the destruction of the stable free radical, diphenylpicrylhydrazyl, in the presence of the test compound in a manner similar to that reported by […] and Herzmann, Naturwiss, 47, 133-134 (1960). […] The test compound was added at a final concentration of 25 μM and the rate of reduction of absorpotion at […] was observed. Table 7 below gives the free radical scavenging abilities of the compounds of this invention expresses as the initial rate of decrease in optical density units/min.

Structure (SMILES) | % Inhibition of SRS-A Biosynthesis (SRS-A biosynthesis) | inhibition at 1 µM (Δ^5-lipoxygenase; 1 uM) | inhibition at 10 µM (Δ^5-lipoxygenase) | T/C % (mean survival time) (B16 Melanoma; 25 mg/kg daily) | T/C % (mean survival time) (B16 Melanoma; 50 mg/kg daily) | T/C % (mean survival time) (B16 Melanoma; 100 mg/kg daily) | T/C % (mean survival time) (B16 Melanoma; 200 mg/kg daily) | T/C % (mean survival time) (B16 Melanoma; 400 mg/kg daily) | T/C % (mean survival time) (B16 Melanoma; 800 mg/kg daily) | initial rate of decrease in optical density (518 nm) [1] | T/C % (mean survival time) (B16 Melanoma; 50 mg/kg daily, listed as ethyl gallamidate.HCl, hydrochloride) | T/C % (mean survival time) (B16 Melanoma; 100 mg/kg daily, listed as ethyl gallamidate.HCl, hydrochloride) | T/C % (mean survival time) (B16 Melanoma; 200 mg/kg daily, listed as ethyl gallamidate.HCl, hydrochloride) | T/C % (mean survival time) (B16 Melanoma; 400 mg/kg daily, listed as ethyl gallamidate.HCl, hydrochloride)
NC(=NO)c1ccc(O)c(O)c1 [3,4-dihydroxybenzamidoxime.HCl, 3,4-dihydroxybenzamidoximehydrochloride] | 25% | 25% | 94% | 119% | 127% | 129% | 134% | 117% | toxic | 0.718 units/min. | – | – | – | –
CCOC(=N)c1cc(O)c(O)c(O)c1 [ethyl 3,4,5-trihydroxybenzamidate-HCl, Ethyl 3,4,5-trihydroxybenzamidate hydrochloride] | 29% | – | 86% | 105% | – | – | – | – | – | 3.730 units/min. | 109% and 104% | 121% and 109% and 107% | 121% and 125% and 122% | 124% and 156% and 137%
